Source: US6562620B2, “Medium to promote islet cell survival” (McGill University, priority 1997, dated 2003)

Experiments:
erk1 and erk2 = erk1 and erk2 activation in isolated islets; assay type: cell-based; details: human islets; FIG. 6
Source text: (§1) The former two pathways are known to be associated with the induction of the apoptotic program, while the latter may be protective.
Signalling through erk has been associated with cell differentiation and cell survival (FIG. 6).

islets = assay: Cell death detection ELISA (DNA fragmentation) of cultured islets; assay type: cell-based, Syrian golden hamsters; details: 3 days serum then 9 days in 25% DCM or 34 ng/ml IGF-II; mean±SEM, n=6; FIG. 10
Experimental: Three experimental groups were designed for this study: Group 1 (control), with 100 islets per culture flask; Group 2 (islets plus ducts), with 100 islets plus 80 ducts per flask; and Group 3 (islets in 25% DCM), with 100 islets per flask.
All tissues were embedded in rat tail collagen and incubated in a humidified atmosphere of 95% air, 5% CO2 at 37° C. The baseline medium for all groups was DMEM/F12, supplemented with 10% NuSerum for three days at the start of the culture period, followed by 9 days of serum-free incubation. The medium was changed every other day.
After a 12 day incubation period, the media was removed and 3 ml of collagenase XI (0.25 mg/ml) was added to each flask for 40 min. The islets were hand-picked and washed three times in Hank's buffered salt solution (HBSS, Gibco, Montreal, Quebec, Canada). The presence of DNA fragmentation, a characteristic feature of apoptosis was determined using a cell death detection ELISA (Boehringer Mannheim, Laval, Quebec). The results were expressed as absorbance at 405 nm and corrected for total DNA content. DNA (μg) was measured by fluorometry using disbenzimidazole (Hoechst 33258, Sigma, Montreal, Quebec) as described (Labarca & Pagen, 1987, Analytical Biochemistry 102:44-52).
The islets were embedded in rat tail collagen and cultured in DMEM/F12 supplemented with 10% NuSerum. […]

p38 = p38 activation in canine islets (Western blot); assay type: cell-based; details: collagen 400 μg/ml
Source text: as §1
Signaling through the p38 MAP kinase is one pathway whose downstream effectors have been implicated in […].
In addition to growth factors, evidence is provided for the beneficial effect of matrix molecules, e.g. fibronectin for human islets, and collagen for canine islets (FIGS. 4 and 5) The data for p38 activation and its modulation by collagen represents the effect of 200 μg/ml of collagen type 1. Not shown, is that collagen in a concentration of 400 μg/ml will decrease p38 activation by over 50%.

IGF-I: insulin-like growth factor-1
effect on erk1 and erk2 activation (erk1 and erk2): positive effect

IGF-II: insulin-like growth factor II, growth factor added at 34 ng/ml
cell death ELISA (DNA fragmentation), IGF-II study (islets): 2.5 ± 1.0

collagen
decrease of p38 activation (p38): over 50%

insulin
effect on erk1 and erk2 activation (erk1 and erk2): positive effect
